IC50 data for 14 molecules are collected here from patent US8957074B2 (Novartis AG, priority 2010, dated 2015).

One test concerns the target CDK4/cyclin D1 (Homo sapiens (Human), UniProt P11802). The experiment in a line: CDK4/cyclin D1 enzymatic activity assay (TR-FRET, phosphorylation of pRb at Ser780). In kind it is biochemical. Here is the method:
CDK4/Cyclin D1 Enzymatic Activity Assay
An assay for monitoring CDK4/cyclin D1-catalyzed phosphorylation of pRb at the Ser780 site was performed using TR-FRET in a 384-well format, and was used for IC50 determination and kinetic analysis. […] 3 μM ATP was added last to initiate the reaction. The reaction was quenched with 10 μL of 240 mM EDTA-Na (pH 8.0) after 60 min incubation at 22° C.
Human CDK4/cyclin D1 was expressed in Sf21 cells via baculovirus infection.
(Time-resolved FRET reads energy transfer from a long-lived donor to a nearby acceptor.)

Test [1] has as its system phosphorylation of pRb at the Ser780 site in JeKo-1 mantle cell lymphoma cells. The experiment in a line: CDK4 cellular assay: ELISA of pRb phosphorylation at Ser780 in JeKo-1 cells. In kind it is cell-based. From the text:
Cell-based assay measuring phosphorylation levels of pRb at the Ser780 site using an enzyme-linked immunosorbent assay (ELISA) method (Table 6). JeKo-1, a mantle-cell lymphoma cell line, was selected for use in this assay due to its known translocation and subsequent overexpression of cyclin D1. [Ref: Amin, H. M.; McDonnell, T. J.; Medeiros, L. J.; Rassidakis, G. Z.; Leventaki, V.; O'Connor, S. L.; Keating, M. J.; Lai, R. Characterization of 4 mantle cell lymphoma cell lines—Establishment of an in vitro study model. Arch. Pathol. Lab.
Cells were allowed to adhere overnight. […] 10 μL of the dilution were then transferred to the cell culture plate, resulting in a final concentration range of 10 μM to 2 nM. The incubation was carried out at 37° C. with 5% CO2. All compounds were tested in triplicates at each concentration. […] The plates were placed at 4° C. with vigorous shaking for 5 min to lyse the cells. The resulting lysates contained approximately 1 μg/μL of protein.
Plates were incubated overnight at 4° C. with rocking. […] After shaking for 10 minutes, the Superblock solution was replaced with fresh Superblock and plates were incubated on a shaker for an additional 50 min. After blocking, 30 μL of JeKo-1 cell lysate, containing approximately 10 μg total protein, were added to wells in triplicate. […] For all incubation steps, plates were covered with Uniseal plate sealers. […] Next, 50 μL of a 1:2500 dilution of donkey-anti-rabbit HRP (Promega catalog no. W401B) in PBS/10% Superblock were added, and plates were incubated for 30 min at room temperature on a shaker. Plates were again washed as described above. […] After incubation, 50 μL 2 M sulfuric acid were added to plates to top the reaction, and absorbance was determined on a SpectraMax (Molecular Devices, Sunnydale, Calif.) within 15 minutes at 450 nm. All washes were performed using a Bio-Tek plate washer.
The Total Rb ELISA kit (Invitrogen catalog no. KH00011) was used to determine the levels of total pRb. This kit uses wells precoated with a proprietary total pRb antibody for capture. All reagents listed, with the exception of cell lysate, were included in the kit. The nature of the antibodies used for capture and detection was labeled as proprietary and not disclosed. 10 μg of cell lysate was loaded into the wells and volume adjusted to 50 μL with standard dilution buffer. Plates were sealed with film included in the kit and incubated for 2 h at room temperature on a shaker. Plates are then manually washed three times with 250 μL wash buffer. 50 μL of proprietary primary antibody (pre-conjugated to biotin) was added to wells and incubated for 1 h at room temperature on a shaker. Then plates were again washed as noted above. The secondary antibody (HRP pre-conjugated to Streptavidin) was diluted 1:100 in Streptavidin-HRP diluent buffer and 50 μL was added to each well. Plates were then incubated for 30 min. Afterwards, plates were washed four times with buffer as outlined above. Finally, 50 μL stabilized Chromogen was added per well and plates were incubated for 15 min, at which point 50 μL of stop solution was added. Plates were then read on a Spectramax at 450 nm.
The total pRb levels were then used to adjust the p-pRb % inhibition values to account for any loss of signal due to the absence of the pRb protein itself, and the IC50 values obtained from the adjusted % inhibitions represent normalized cellular p-pRb IC50.
A general note: ELISA stands for enzyme-linked immunosorbent assay.

A further test has as its target CDK1/cyclin B (Homo sapiens (Human), UniProt P06493). The test is described as follows: CDK1/cyclin B enzymatic activity assay (IMAP-FP). The test is classed as biochemical. The following applies: […] CDK1/cyclin B, 100 nM Tamra Histone-H1 peptide, 20 μM ATP, 120 min at room temperature; read-out: Biochemical CDK1 enzyme IC50. From the text:
CDK1/Cyclin B Enzymatic Activity Assay
A 384-well microtiter IMAP-FP™ (Molecular Devices Trade Mark Technology) endpoint assay was used for CDK1/cyclin B kinase activity measurements. The same assay was used for IC50 determination of small molecule inhibitors.

The mark [2] stands for this setting: Homo sapiens, JeKo-1, JeKo-1 cells, p-pRb % inhibition adjusted with total pRb levels, read-out: Normalized cellular ppRb inhibition IC50.
Where [3] appears, read: Homo sapiens, JeKo-1, JeKo-1 cells, p-pRb Ser780 ELISA, non-normalized, read-out: Cellular ppRb inhibition IC50.
Where [4] appears, read: 0.3 nM CDK4/cyclin D1, 150 nM biotin-pRb (773-924), 3 μM ATP, 60 min at 22° C., read-out: Biochemical CDK4 enzyme IC50.
Where [5] appears, read: Homo sapiens, JeKo-1 cells, p-pRb % inhibition adjusted with total pRb levels, read-out: Normalized cellular ppRb inhibition IC50.
[6] abbreviates: Homo sapiens, JeKo-1 cells, p-pRb Ser780 ELISA, non-normalized, read-out: Cellular ppRb inhibition IC50.

Where two headings read alike, the source gives them in different places.

Chain of CDK1/cyclin B (P06493 whole entry, species assumed): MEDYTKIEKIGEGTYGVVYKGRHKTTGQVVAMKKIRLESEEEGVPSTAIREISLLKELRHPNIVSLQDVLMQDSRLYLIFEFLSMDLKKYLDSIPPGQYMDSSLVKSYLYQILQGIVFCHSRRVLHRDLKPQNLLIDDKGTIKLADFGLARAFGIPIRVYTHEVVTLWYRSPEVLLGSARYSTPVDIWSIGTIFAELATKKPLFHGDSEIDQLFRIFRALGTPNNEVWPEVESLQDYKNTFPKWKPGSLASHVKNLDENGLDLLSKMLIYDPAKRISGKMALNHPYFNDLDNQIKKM
Chain of CDK1/cyclin B (P14635 whole entry partner, species assumed): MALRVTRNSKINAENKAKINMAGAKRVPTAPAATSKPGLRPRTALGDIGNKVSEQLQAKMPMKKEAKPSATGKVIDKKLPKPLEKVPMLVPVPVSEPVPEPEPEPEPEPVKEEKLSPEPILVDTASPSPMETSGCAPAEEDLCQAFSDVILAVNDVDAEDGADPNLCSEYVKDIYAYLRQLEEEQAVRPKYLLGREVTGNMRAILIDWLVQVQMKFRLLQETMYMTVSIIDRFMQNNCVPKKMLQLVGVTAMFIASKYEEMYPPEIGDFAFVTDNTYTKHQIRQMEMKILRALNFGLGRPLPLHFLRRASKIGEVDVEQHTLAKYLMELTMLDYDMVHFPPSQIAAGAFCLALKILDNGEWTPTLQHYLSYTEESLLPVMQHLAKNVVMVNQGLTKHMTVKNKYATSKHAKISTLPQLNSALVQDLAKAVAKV
Chain of CDK4/cyclin D1 (P11802 whole entry): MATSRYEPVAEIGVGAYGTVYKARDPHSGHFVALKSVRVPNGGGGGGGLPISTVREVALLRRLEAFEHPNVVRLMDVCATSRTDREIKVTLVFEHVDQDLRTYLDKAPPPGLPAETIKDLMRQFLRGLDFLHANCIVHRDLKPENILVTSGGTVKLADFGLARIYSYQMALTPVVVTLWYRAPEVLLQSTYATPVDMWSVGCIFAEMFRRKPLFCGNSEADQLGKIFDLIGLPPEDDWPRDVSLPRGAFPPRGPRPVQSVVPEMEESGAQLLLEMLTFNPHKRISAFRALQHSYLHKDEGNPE
Chain of CDK4/cyclin D1 (P24385 whole entry partner): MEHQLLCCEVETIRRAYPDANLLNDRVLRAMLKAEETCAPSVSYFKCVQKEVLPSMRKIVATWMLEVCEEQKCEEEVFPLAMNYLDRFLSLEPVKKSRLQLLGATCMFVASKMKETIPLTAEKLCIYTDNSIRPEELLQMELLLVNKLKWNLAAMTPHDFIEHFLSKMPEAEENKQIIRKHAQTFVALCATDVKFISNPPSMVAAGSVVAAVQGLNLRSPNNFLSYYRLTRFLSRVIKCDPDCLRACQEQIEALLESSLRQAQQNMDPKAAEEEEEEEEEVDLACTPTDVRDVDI

As for `CN(C)C(=O)c1cc2cnc(Nc3ccc(C(=O)N4C5CCC4CNC5)cn3)nc2n1C1CCCC1` [Example 22, 7-Cyclopentyl-2-[5-(3,8-diaza-bicyclo[3.2.1]octane-8-carbonyl)-pyridin-2-ylamino]-7H-pyrrolo[2,3-d]pyrimidine-6-carboxylic acid dimethylamide], the IC50 – broadly, the concentration at which inhibition is half-maximal – was 62 to 83 nM on CDK4/cyclin D1, 86 to 817 nM in test [1] (setting [2]), 86 to 513 nM in test [1] (setting [3]) and greater than 15000 nM on CDK1/cyclin B.

For `CN(C)C(=O)c1cc2cnc(Nc3ccc(N4CC5CNCC5CC4=O)cn3)nc2n1C1CCCCCC1` (racemic) [Example 87, 7-cycloheptyl-N,N-dimethyl-2-(5-(cis-6-oxotetrahydro-1H-pyrrolo[3,4-c]pyridin-5(6H,7H,7aH)-yl)pyridin-2-ylamino)-7H-pyrrolo[2,3-d]pyrimidine-6-carboxamide], the IC50 is less than 5 nM on CDK4/cyclin D1 (setting [4]); 5 to 8 nM in test [1] (Homo sapiens, JeKo-1, read-out: Cellular ppRb inhibition IC50); 6 to 15 nM in test [1] (Homo sapiens, JeKo-1, read-out: Normalized cellular ppRb inhibition IC50); 4140 nM on CDK1/cyclin B.

As to `CN(C)C(=O)c1cc2cnc(Nc3ccc(N4CC5CCC(CC4=O)N5)cn3)nc2n1C1CCCC1` (stereo not drawn) [Example 122, 7-Cyclopentyl-2-[5-(4-oxo-3,9-diaza-bicyclo[4.2.1]non-3-yl)-pyridin-2-ylamino]-7H-pyrrolo[2,3-d]pyrimidine-6-carboxylic acid dimethylamide], the IC50 against CDK4/cyclin D1 was 5 to 10 nM; in test [1] (JeKo-1 cells, p-pRb % inhibition adjusted with total pRb levels, read-out: Normalized cellular ppRb inhibition IC50) it was 14 nM; in test [1] (JeKo-1 cells, p-pRb Ser780 ELISA, non-normalized, read-out: Cellular ppRb inhibition IC50), 9 nM; at CDK1/cyclin B, greater than 15000 nM.

On to `CN(C)C(=O)c1cc2cnc(Nc3ccc(C(=O)N4CC5CCC(C4)N5)cn3)nc2n1C1CCN(C(C)(C)C)CC1` [Example 57, 7-(1-tert-Butyl-piperidin-4-yl)-2-[5-(3,8-diaza-bicyclo[3.2.1]octane-3-carbonyl)-pyridin-2-ylamino]-7H-pyrrolo[2,3-d]pyrimidine-6-carboxylic acid dimethylamide], for which the IC50 was 1570 nM at CDK4/cyclin D1 (setting [4]), greater than 10000 nM in test [1] (setting [5]), greater than 10000 nM in test [1] (setting [6]) and greater than 15000 nM on CDK1/cyclin B.

As to `CNC(=O)c1cc2cnc(Nc3ccc(C(=O)N4CC5CCC(C4)N5)cn3)nc2n1C1CCCC1` [Example 23, 7-Cyclopentyl-2-[5-(3,8-diaza-bicyclo[3.2.1]octane-3-carbonyl)-pyridin-2-ylamino]-7H-pyrrolo[2,3-d]pyrimidine-6-carboxylic acid methylamide], the IC50 was 1630 nM at CDK4/cyclin D1 (setting [4]), 6770 nM in test [1] (setting [2]), 6770 nM in test [1] (setting [3]) and greater than 15000 nM on CDK1/cyclin B.

As to `CN(C)C(=O)c1cc2cnc(Nc3ccc(C(=O)N4CC5CCC(C4)N5)cn3)nc2n1C1CCCC1` [Example 18, 7-Cyclopentyl-2-[5-(3,8-diaza-bicyclo[3.2.1]octane-3-carbonyl)-pyridin-2-ylamino]-7H-pyrrolo[2,3-d]pyrimidine-6-carboxylic acid dimethylamide], the IC50 was 8 to 24 nM on CDK4/cyclin D1, 26 to 90 nM in test [1] (setting [2]), 12 to 37 nM in test [1] (setting [3]) and 13200 nM on CDK1/cyclin B.

With `CN(C)C(=O)c1cc2cnc(Nc3ccc(C(=O)N4CC[C@@H]5CC[C@H](C4)N5)cn3)nc2n1C1CCCC1` [Example 72, 7-cyclopentyl-2-[5-((1R,6S)-3,9-diaza-bicyclo[4.2.1]nonane-3-carbonyl)-pyridin-2-ylamino]-7H-pyrrolo[2,3-d]pyrimidine-6-carboxylic acid dimethylamide], the IC50 on CDK4/cyclin D1 (setting [4]) worked out at 13 nM; in test [1] (setting [5]) it was 112 nM; in test [1] (setting [6]) it was 48 nM.

Regarding `CN(C)C(=O)c1cc2cnc(Nc3ccc(C(=O)N4CCC5CCC(C4)N5)cn3)nc2n1C1CCCC1` (racemic) [Example 69, 7-Cyclopentyl-2-[5-(3,9-diaza-bicyclo[4.2.1]nonane-3-carbonyl)-pyridin-2-ylamino]-7H-pyrrolo[2,3-d]pyrimidine-6-carboxylic acid dimethylamide], the IC50 at CDK4/cyclin D1 (setting [4]) is 5 to 18 nM; in test [1] (setting [5]) it was 48 nM; in test [1] (setting [6]), 24 nM.

As for `CN(C)C(=O)c1cc2cnc(Nc3ccc(C(=O)N4CC5CCC(C4)N5)cn3)nc2n1C1CCC1` [Example 55, 7-Cyclobutyl-2-[5-(3,8-diaza-bicyclo[3.2.1]octane-3-carbonyl)-pyridin-2-ylamino]-7H-pyrrolo[2,3-d]pyrimidine-6-carboxylic acid dimethylamide], the results for the IC50 in test [1] (setting [5]) and in test [1] (setting [6]) were 35 to 164 nM and 31 to 112 nM, respectively.

Take `CN(C)C(=O)c1cc2cnc(Nc3ccc(C(=O)N4CC[C@H]5CC[C@@H](C4)N5)cn3)nc2n1C1CCCC1` [Example 71, 7-Cyclopentyl-2-[5-((1S,6R)-3,9-diaza-bicyclo[4.2.1]nonane-3-carbonyl)-pyridin-2-ylamino]-7H-pyrrolo[2,3-d]pyrimidine-6-carboxylic acid dimethylamide]: the IC50 at CDK4/cyclin D1 (setting [4]) was 5 to 6 nM; in test [1] (setting [5]) it was 56 nM; in test [1] (setting [6]), 31 nM.

As to `CN(C)C(=O)c1cc2cnc(Nc3ccc(C(=O)N4CC5CCC(C4)N5)cn3)nc2n1C1CCN(C2CC2)CC1` [Example 56, 7-(1-cyclopropyl-piperidin-4-yl)-2-[5-(3,8-diaza-bicyclo[3.2.1]octane-3-carbonyl)-pyridin-2-ylamino]-7H-pyrrolo[2,3-d]pyrimidine-6-carboxylic acid dimethylamide], the IC50 was 470 nM in test [1] (setting [2]) and 395 nM in test [1] (setting [3]).

`CN(C)C(=O)c1cc2cnc(Nc3ccc(N4CCC5(CCCN5)C4=O)cn3)nc2n1C1CCCC1` (stereo not drawn) [Example 113, 7-Cyclopentyl-2-[5-(6-oxo-1,7-diaza-spiro[4,4]non-7-yl)-pyridin-2-ylamino]-7H-pyrrolo[2,3-d]pyrimidin-6-carboxylic acid dimethylamide]: the IC50 at CDK4/cyclin D1 (setting [4]) fell in the range of 17 to 21 nM; in test [1] (setting [2]), 204 to 245 nM; in test [1] (setting [3]) it was 177 to 205 nM.

`CN(C)C(=O)c1cc2cnc(Nc3ccc(N4CC5CCC(CC4=O)N5)cn3)nc2n1-c1ccc(C(C)(C)C#N)cc1` (stereo not drawn) [Example 127, 7-(4-(2-cyanopropan-2-yl)phenyl)-N,N-dimethyl-2-(5-(4-oxo-3,9-diazabicyclo[4.2.1]nonan-3-yl)pyridin-2-ylamino)-7H-pyrrolo[2,3-d]pyrimidine-6-carboxamide]: the results for the IC50 in test [1] (setting [5]) and in test [1] (setting [6]) were 247 to 1520 nM and 119 to 917 nM, respectively.

Take `CN(C)C(=O)c1cc2cnc(Nc3ccc(C(=O)N4CC5CCCC(C4)N5)cn3)nc2n1C1CCCC1` [Example 52, 7-Cyclopentyl-2-[5-(3,9-diaza-bicyclo[3.3.1]nonane-3-carbonyl)-pyridin-2-ylamino]-7H-pyrrolo[2,3-d]pyrimidine-6-carboxylic acid dimethylamide]: the results for the IC50 (at CDK4/cyclin D1 (setting [4]); in test [1] (setting [5]); in test [1] (setting [6])) were 27 nM, 45 to 53 nM and 21 to 47 nM, respectively.
